The assay concerns MV-4-11 cells. The assay can be described thus: Gene expression microarray analysis (Affymetrix PrimeView) and GSEA. It counts as cell-based, human. On the set-up: RFU PODN (11730768_x_at) / Fold change /veh PODN (11730768_x_at) / RFU LINC00158 (11744669_a_at) / Fold change /veh LINC00158 (11744669_a_at) / RFU DUSP10 (11751237_a_at) / Fold change /veh DUSP10 (11751237_a_at) / RFU ID3 (11757404_x_at) / Fold change /veh ID3 (11757404_x_at) / RFU PLEKHG5 (11737974_s_at) / Fold change /veh PLEKHG5 (11737974_s_at) / RFU LRRC4B (11730491_at) / Fold change /veh LRRC4B (11730491_at) / RFU GIMAP4 (11747438_a_at) / Fold change /veh GIMAP4 (11747438_a_at) / RFU KRT8 (11758183_x_at) / Fold change /veh KRT8 (11758183_x_at) / RFU CNN1 (11734310_a_at) / Fold change /veh CNN1 (11734310_a_at) / RFU VPS37D (11726825_at) / Fold change /veh VPS37D (11726825_at) / RFU C10orf10 (11716522_x_at) / Fold change /veh C10orf10 (11716522_x_at) / RFU KIR2DL2 /// KIR2DL4 /// KIR2DL5A /// KIR2DL5B /// KIR2DS1 /// KIR2DS2 /// KIR2DS3 /// KIR2DS4 /// KIR3DL3 /// KIR3DL3 /// KIR3DS1 (11738374_at) / Fold change /veh KIR2DL2 /// KIR2DL4 /// KIR2DL5A /// KIR2DL5B /// KIR2DS1 /// KIR2DS2 /// KIR2DS3 /// KIR2DS4 /// KIR3DL3 /// KIR3DL3 /// KIR3DS1 (11738374_at) / RFU C1QL1 (11718748_at) / Fold change /veh C1QL1 (11718748_at) / RFU TMPRSS4 (11747572_a_at) / Fold change /veh TMPRSS4 (11747572_a_at) / RFU HAMP (11756126_x_at) / Fold change /veh HAMP (11756126_x_at) / RFU RNFT2 (11725882_a_at) / Fold change /veh RNFT2 (11725882_a_at) / RFU NR4A2 (11747474_a_at) / Fold change /veh NR4A2 (11747474_a_at) / RFU ABCC12 (11746883_a_at) / Fold change /veh ABCC12 (11746883_a_at) / RFU TMEM136 (11760407_x_at) / Fold change /veh TMEM136 (11760407_x_at) / RFU CLDN22 /// WWC2 (11732394_at) / Fold change /veh CLDN22 /// WWC2 (11732394_at) / RFU HLA-DPB1 (11760878_x_at) / Fold change /veh HLA-DPB1 (11760878_x_at) / RFU SPINT1 (11716480_a_at) / Fold change /veh SPINT1 (11716480_a_at) / RFU GAP43 (11754022_s_at) / Fold change /veh GAP43 (11754022_s_at) / RFU A4GNT (11735810_at) / Fold change /veh A4GNT (11735810_at) / RFU PRB3 (11715151_x_at) / Fold change /veh PRB3 (11715151_x_at) / RFU TUBB4B (11761932_at) / Fold change /veh TUBB4B (11761932_at) / RFU CAPN14 (11732068_a_at) / Fold change /veh CAPN14 (11732068_a_at) / RFU TMCC2 (11721928_a_at) / Fold change /veh TMCC2 (11721928_a_at) / RFU IRGQ (11745062_a_at) / Fold change /veh IRGQ (11745062_a_at) / RFU FAM174B (11720279_a_at) / Fold change /veh FAM174B (11720279_a_at) / RFU TMPRSS4 (11748680_a_at) / Fold change /veh TMPRSS4 (11748680_a_at) / RFU FAM212B (11763350_a_at) / Fold change /veh FAM212B (11763350_a_at) / RFU PLEKHG5 (11743358_a_at) / Fold change /veh PLEKHG5 (11743358_a_at) / RFU ZSCAN30 (11745921_a_at) / Fold change /veh ZSCAN30 (11745921_a_at) / RFU CMKLR1 (11741424_a_at) / Fold change /veh CMKLR1 (11741424_a_at) / RFU LOC101060620 /// MAPK8IP1 (11723275_at) / Fold change /veh LOC101060620 /// MAPK8IP1 (11723275_at) / RFU SPTSSB (11747773_x_at) / Fold change /veh SPTSSB (11747773_x_at) / RFU PRSS12 (11739890_at) / Fold change /veh PRSS12 (11739890_at) / RFU BIN1 (11741810_x_at) / Fold change /veh BIN1 (11741810_x_at) / RFU WNT11 (11732464_a_at) / Fold change /veh WNT11 (11732464_a_at) / RFU C10orf10 (11716521_a_at) / Fold change /veh C10orf10 (11716521_a_at) / RFU C5orf56 (11738089_at) / Fold change /veh C5orf56 (11738089_at) / RFU CYB561 (11721691_x_at) / Fold change /veh CYB561 (11721691_x_at) / RFU ANKRD19P (11752326_a_at) / Fold change /veh ANKRD19P (11752326_a_at) / RFU OR2T12 /// OR2T33 /// OR2T8 (11738714_s_at) / Fold change /veh OR2T12 /// OR2T33 /// OR2T8 (11738714_s_at) / RFU VCAN (11748164_a_at) / Fold change /veh VCAN (11748164_a_at) / RFU JSRP1 (11732532_at) / Fold change /veh JSRP1 (11732532_at) / RFU KRTAP10-11 (11738290_x_at) / Fold change /veh KRTAP10-11 (11738290_x_at) / RFU MYO3A (11730013_a_at) / Fold change /veh MYO3A (11730013_a_at) / RFU EBF3 (11725865_a_at) / Fold change /veh EBF3 (11725865_a_at) / RFU CAMK2N1 (11719241_x_at) / Fold change /veh CAMK2N1 (11719241_x_at) / RFU C5orf56 (11738088_a_at) / Fold change /veh C5orf56 (11738088_a_at) / RFU OLFML3 (11715873_a_at) / Fold change /veh OLFML3 (11715873_a_at) / RFU LOC100653217 /// NTM (11731650_a_at) / Fold change /veh LOC100653217 /// NTM (11731650_a_at) / RFU MAPK11 (11762145_a_at) / Fold change /veh MAPK11 (11762145_a_at) / RFU FIZ1 (11724087_x_at) / Fold change /veh FIZ1 (11724087_x_at) / RFU OASL (11726364_x_at) / Fold change /veh OASL (11726364_x_at) / RFU SOX15 (11748057_x_at) / Fold change /veh SOX15 (11748057_x_at) / RFU CD79A (11719716_a_at) / Fold change /veh CD79A (11719716_a_at) / RFU HIST1H1D (11736915_at) / Fold change /veh HIST1H1D (11736915_at) / RFU CASKIN2 (11723855_a_at) / Fold change /veh CASKIN2 (11723855_a_at) / RFU LOC730098 (11760151_x_at) / Fold change /veh LOC730098 (11760151_x_at) / RFU OR4N2 (11742367_at) / Fold change /veh OR4N2 (11742367_at) / RFU PRRT2 (11749266_a_at) / Fold change /veh PRRT2 (11749266_a_at) / RFU SNX32 (11753110_a_at) / Fold change /veh SNX32 (11753110_a_at) / RFU CDHR5 (11726645_a_at) / Fold change /veh CDHR5 (11726645_a_at) / RFU RCAN1 (11760418_a_at) / Fold change /veh RCAN1 (11760418_a_at) / RFU FAM167A (11723789_a_at) / Fold change /veh FAM167A (11723789_a_at) / RFU FAM26E (11764081_at) / Fold change /veh FAM26E (11764081_at) / RFU ISYNA1 (11749810_s_at) / Fold change /veh ISYNA1 (11749810_s_at) / RFU ACY1 (11761880_at) / Fold change /veh ACY1 (11761880_at) / RFU 11764098_at / Fold change /veh 11764098_at / RFU SAMD14 (11745864_x_at) / Fold change /veh SAMD14 (11745864_x_at) / RFU NPB (11741838_a_at) / Fold change /veh NPB (11741838_a_at) / RFU TMPRSS6 (11731388_a_at) / Fold change /veh TMPRSS6 (11731388_a_at) / RFU KRTAP10-2 (11738614_at) / Fold change /veh KRTAP10-2 (11738614_at) / RFU ARHGAP8 /// PRR5-ARHGAP8 (11727945_x_at) / Fold change /veh ARHGAP8 /// PRR5-ARHGAP8 (11727945_x_at) / RFU KRTAP5-7 /// NADSYN1 (11734609_at) / Fold change /veh KRTAP5-7 /// NADSYN1 (11734609_at) / RFU RASL12 (11751679_a_at) / Fold change /veh RASL12 (11751679_a_at) / RFU CDKN2B (11736163_a_at) / Fold change /veh CDKN2B (11736163_a_at) / RFU PRF1 (11729649_at) / Fold change /veh PRF1 (11729649_at) / RFU, ZNF638 /// ZNF638-IT1 / Fold change vs veh, ZNF638 /// ZNF638-IT1 / RFU, PANK3 / Fold change vs veh, PANK3 / RFU, SH3YL1 / Fold change vs veh, SH3YL1 / RFU, ZEB2 / Fold change vs veh, ZEB2 / RFU, NRIP1 / Fold change vs veh, NRIP1 / RFU, PTTG1IP / Fold change vs veh, PTTG1IP / RFU, CAPN2 / Fold change vs veh, CAPN2 / RFU, MED14 / Fold change vs veh, MED14 / RFU, SNORA58 / Fold change vs veh, SNORA58 / RFU, C1orf63 / Fold change vs veh, C1orf63 / RFU, LRRFIP1 / Fold change vs veh, LRRFIP1 / RFU, NDUFAF7 / Fold change vs veh, NDUFAF7 / RFU, SLC12A2 / Fold change vs veh, SLC12A2 / RFU, IBTK / Fold change vs veh, IBTK / RFU, ESF1 / Fold change vs veh, ESF1 / Fold change vs veh, TMEM50B / RFU, TAOK1 / Fold change vs veh, TAOK1 / RFU, ACBD3 / Fold change vs veh, ACBD3 / RFU, TMA16 / Fold change vs veh, TMA16 / RFU, RWDD3 / Fold change vs veh, RWDD3 / RFU, BCAT1 / Fold change vs veh, BCAT1 / RFU, EDEM3 / Fold change vs veh, EDEM3 / RFU, TMEM33 / Fold change vs veh, TMEM33 / RFU, WDR75 / Fold change vs veh, WDR75 / RFU, AHCTF1 / Fold change vs veh, AHCTF1 / RFU, TFRC / Fold change vs veh, TFRC / RFU, ZDHHC17 / Fold change vs veh, ZDHHC17 / RFU, NOM1 / Fold change vs veh, NOM1 / RFU, ARL8B / Fold change vs veh, ARL8B / RFU, ZBTB11 / Fold change vs veh, ZBTB11 / RFU, TAMM41 / Fold change vs veh, TAMM41 / RFU, KIAA1704 /// LOC100996395 / Fold change vs veh, KIAA1704 /// LOC100996395 / RFU, ING1 / Fold change vs veh, ING1 / RFU, TRMT61B / Fold change vs veh, TRMT61B / RFU, FUBP3 / Fold change vs veh, FUBP3 / RFU, TP53 / Fold change vs veh, TP53 / RFU, TNKS2 / Fold change vs veh, TNKS2 / RFU, ZFP14 / Fold change vs veh, ZFP14 / RFU, ACTR2 / Fold change vs veh, ACTR2 / RFU, PPP3R1 / Fold change vs veh, PPP3R1 / RFU, PIK3R1 / Fold change vs veh, PIK3R1 / RFU, HNRNPA1 / Fold change vs veh, HNRNPA1 / RFU, RNF170 / Fold change vs veh, RNF170 / RFU, ZNF28 / Fold change vs veh, ZNF28 / RFU, RNGTT / Fold change vs veh, RNGTT / RFU, OGT / Fold change vs veh, OGT / RFU, BRD1 / Fold change vs veh, BRD1 / RFU, MARS / Fold change vs veh, MARS / RFU, ZNF655 / Fold change vs veh, ZNF655 / RFU, FAHD1 / Fold change vs veh, FAHD1 / RFU, BDP1 / Fold change vs veh, BDP1 / RFU, LRRCC1 / Fold change vs veh, LRRCC1 / RFU, ARID1A / Fold change vs veh, ARID1A / RFU, ZNF146 / Fold change vs veh, ZNF146 / RFU, ZNF330 / Fold change vs veh, ZNF330 / RFU, GPN3 / Fold change vs veh, GPN3 / RFU, C9orf123 / Fold change vs veh, C9orf123 / RFU, N4BP2L2 / Fold change vs veh, N4BP2L2 / RFU, ARFIP1 / Fold change vs veh, ARFIP1 / RFU, FAM179B / Fold change vs veh, FAM179B / RFU, BCL10 / Fold change vs veh, BCL10 / RFU, UHRF1BP1L / Fold change vs veh, UHRF1BP1L / RFU, BET1 / Fold change vs veh, BET1 / RFU, CNOT2 / Fold change vs veh, CNOT2 / RFU, ZNF268 / Fold change vs veh, ZNF268 / Fold change vs veh, ZNF507 / RFU, DGCR2 / Fold change vs veh, DGCR2 / RFU, WDSUB1 / Fold change vs veh, WDSUB1 / Fold change vs veh, HSP90B1 /// MIR3652 / RFU, ADSS / Fold change vs veh, ADSS / RFU, GK / Fold change vs veh, GK / RFU, ZNF148 / Fold change vs veh, ZNF148 / RFU, TAF9 / Fold change vs veh, TAF9 / RFU, SLC1A5 / Fold change vs veh, SLC1A5 / RFU, SLMO2 / Fold change vs veh, SLMO2 / RFU, ABCC4 / Fold change vs veh, ABCC4 / RFU, LOC101060439 /// RAP1B / Fold change vs veh, LOC101060439 /// RAP1B / RFU, RFX7 / Fold change vs veh, RFX7 / RFU, GTPBP10 / Fold change vs veh, GTPBP10 / RFU, CNEP1R1 / Fold change vs veh, CNEP1R1 / RFU, BIVM-ERCC5 /// ERCC5 / Fold change vs veh, BIVM-ERCC5 /// ERCC5 / RFU, ILF3 / Fold change vs veh, ILF3 / RFU 11762660_at / Fold change /veh 11762660_at / RFU VCAN (11757783_s_at) / Fold change /veh VCAN (11757783_s_at) / RFU DDX43 (11728927_at) / Fold change /veh DDX43 (11728927_at) / RFU KRT8 (11758188_x_at) / Fold change /veh KRT8 (11758188_x_at) / RFU NKD1 (11759106_at) / Fold change /veh NKD1 (11759106_at) / RFU SRD5A1 (11742802_a_at) / Fold change /veh SRD5A1 (11742802_a_at) / RFU TPSAB1 /// TPSB2 (11721975_s_at) / Fold change /veh TPSAB1 /// TPSB2 (11721975_s_at) / RFU GSTM3 (11746129_a_at) / Fold change /veh GSTM3 (11746129_a_at) / RFU IL23R (11737362_x_at) / Fold change /veh IL23R (11737362_x_at) / RFU TMEM51 (11727254_a_at) / Fold change /veh TMEM51 (11727254_a_at) / RFU PIWIL2 (11732686_x_at) / Fold change /veh PIWIL2 (11732686_x_at) / RFU ORM1 (11744905_x_at) / Fold change /veh ORM1 (11744905_x_at) / RFU CCDC152 (11743942_at) / Fold change /veh CCDC152 (11743942_at) / RFU ECM1 (11717891_a_at) / Fold change /veh ECM1 (11717891_a_at) / RFU IL23R (11748794_a_at) / Fold change /veh IL23R (11748794_a_at) / RFU TNFAIP8L3 (11732012_x_at) / Fold change /veh TNFAIP8L3 (11732012_x_at) / RFU MBOAT4 (11741988_at) / Fold change /veh MBOAT4 (11741988_at) / RFU 11764193_at / Fold change /veh 11764193_at / RFU TMEM53 (11763286_at) / Fold change /veh TMEM53 (11763286_at) / RFU MAGEB2 (11727129_at) / Fold change /veh MAGEB2 (11727129_at) / RFU TMEM200A (11744735_a_at) / Fold change /veh TMEM200A (11744735_a_at) / RFU CCDC152 (11751479_a_at) / Fold change /veh CCDC152 (11751479_a_at) / RFU FAM211A (11726209_a_at) / Fold change /veh FAM211A (11726209_a_at) / RFU RGS16 (11746705_a_at) / Fold change /veh RGS16 (11746705_a_at) / RFU VCAN (11755009_s_at) / Fold change /veh VCAN (11755009_s_at) / RFU RHOB (11743442_s_at) / Fold change /veh RHOB (11743442_s_at) / RFU RGS16 (11720943_a_at) / Fold change /veh RGS16 (11720943_a_at) / RFU RGS16 (11720944_at) / Fold change /veh RGS16 (11720944_at) / RFU, VPS4B / Fold change vs veh, VPS4B / RFU, CREB1 / Fold change vs veh, CREB1 / RFU, DNAJC13 / Fold change vs veh, DNAJC13 / RFU, GNAQ / Fold change vs veh, GNAQ / RFU, CDK5R1 / Fold change vs veh, CDK5R1 / RFU, ZRANB3 / Fold change vs veh, ZRANB3 / RFU, CUL4A / Fold change vs veh, CUL4A / RFU, CCNY / Fold change vs veh, CCNY / RFU, UFL1 / Fold change vs veh, UFL1 / RFU, COG3 / Fold change vs veh, COG3 / RFU, DIAPH2 / Fold change vs veh, DIAPH2 / RFU, SKA2 / Fold change vs veh, SKA2 / RFU, AFF3 / Fold change vs veh, AFF3 / RFU, LMF1 / Fold change vs veh, LMF1 / RFU, IPO11 / Fold change vs veh, IPO11 / RFU, DFFB / Fold change vs veh, DFFB / RFU, FOXP1 / Fold change vs veh, FOXP1 / RFU, CARD8 / Fold change vs veh, CARD8 / RFU, STRN3 / Fold change vs veh, STRN3 / RFU, ADK / Fold change vs veh, ADK / RFU, RASSF2 / Fold change vs veh, RASSF2 / RFU, WIPF1 / Fold change vs veh, WIPF1 / RFU, LARP1B / Fold change vs veh, LARP1B / RFU, RASA1 / Fold change vs veh, RASA1 / RFU, RB1 / Fold change vs veh, RB1 / RFU, PPFIA1 / Fold change vs veh, PPFIA1 / RFU, MAT2A / Fold change vs veh, MAT2A / RFU, CCT5 / Fold change vs veh, CCT5 / RFU, WDR92 / Fold change vs veh, WDR92 / RFU, CUX1 / Fold change vs veh, CUX1 / RFU, TTC7A / Fold change vs veh, TTC7A / RFU, TMEM135 / Fold change vs veh, TMEM135 / RFU, DEPTOR / Fold change vs veh, DEPTOR / RFU, CPM / Fold change vs veh, CPM / RFU, DNAJB6 / Fold change vs veh, DNAJB6 / RFU, CACNA2D3 / Fold change vs veh, CACNA2D3 / RFU, DTX4 / Fold change vs veh, DTX4 / RFU, TFCP2 / Fold change vs veh, TFCP2 / RFU, GMCL1 /// GMCL1P1 / Fold change vs veh, GMCL1 /// GMCL1P1 / RFU, AEBP2 / Fold change vs veh, AEBP2 / RFU, SNHG1 /// SNORD22 /// SNORD25 /// SNORD26 /// SNORD27 /// SNORD28 /// SNORD29 /// SNORD31 / Fold change vs veh, SNHG1 /// SNORD22 /// SNORD25 /// SNORD26 /// SNORD27 /// SNORD28 /// SNORD29 /// SNORD31 / Fold change (Aza/veh), C12orf56 (ProbeSet 11735607_a_at) / Fold change (ACY-1035/veh), C12orf56 (ProbeSet 11735607_a_at) / Fold change (Aza/veh), FGFR1OP (ProbeSet 11751329_s_at) / Fold change (ACY-1035/veh), FGFR1OP (ProbeSet 11751329_s_at) / Fold change (Aza/veh), VPS36 (ProbeSet 11739960_a_at) / Fold change (ACY-1035/veh), VPS36 (ProbeSet 11739960_a_at) / RFU SYPL1 (11715823_x_at) / Fold change /veh SYPL1 (11715823_x_at) / RFU IGFBP7 (11715501_s_at) / Fold change /veh IGFBP7 (11715501_s_at) / RFU REEP3 (11722064_at) / Fold change /veh REEP3 (11722064_at) / RFU IGLL1 (11728026_x_at) / Fold change /veh IGLL1 (11728026_x_at): dose or concentration left out as unconfirmed. To be noted: MV-4-11 cells, 48 hours.

Results on one compound are retold here after publication PMC5218480 (PLoS ONE, 2017).

Molecules are shown by their SMILES.

On to `Nc1ccc(-c2cccs2)cc1NC(=O)c1ccc2c(c1)cc(C1CC1)n2CCN1CCOCC1` [ACY-1035], for which the “RFU LOC100653217 /// NTM (11731650_a_at)” value worked out at 9.86 RFU.
